The values that follow come from article PMC5736767, “A Comparison of Drug Transport in Pulmonary Absorption Models: Isolated Perfused rat Lungs, Respiratory Epithelial Cell Lines and Primary Cell Culture” (Pharmaceutical Research, 2017).

The subject of data set [1] is isolated perfused rat lungs. Kind of data set: in vitro. The method, then: (§1) Eight-week old male Wistar rats were obtained from Harlan UK Ltd. (Oxon, Oxfordshire). They were fed with a SDS RM1(E) maintenance diet (Special Diets Services Ltd., Essex). They were maintained at 20–21°C and 45–60% humidity with a 12 h light/dark cycle. All procedures performed on these animals were in accordance with regulations and established guidelines and were reviewed and approved by an Institutional Animal Care and Use Committee or through an ethical review process.
(§2) Rats were sacrificed with a lethal injection of pentobarbital (130 mg/kg body weight). As soon as they were unconscious, rats were secured in a supine position on a board inclined at approximately 45°. A midline incision was made from the neck to the abdomen using a scalpel blade and the rat was exsanguinated by severing the main abdominal vessels. The trachea was exposed and carefully pierced through one wall with a 21 G needle. A 3 cm long cannula made of a polyethylene tubing (PolyE 240, Harvard Apparatus Ltd., Edenbridge, UK) mounted on a blunt 21 G needle was introduced into the trachea. This was securely tied with two suture threads (Silk black braid USP size 4.0, Harvard apparatus Ltd) and a 25 mm Dieffenbach’s bulldog artery clip (Scientific Laboratory Supplies Ltd., Nottingham, UK). The diaphragm was cut open, 0.5 mL of air was administered to the lungs to partly re-inflate them and the rib cage was laterally incised with scissors taking care not to damage the lung tissue.
(§3) After the thymus was removed, the heart was twisted slightly to expose the pulmonary artery and then stretched down using a Halstead’s artery clamp (Scientific Laboratory Supplies). An incision was made and the pulmonary artery was cannulated using a cannula similar to the tracheal one. This was secured with a micro aneurysm clip (Harvard apparatus Ltd). Lungs were perfused using a single pass constant flow rate of 8 mL/min. […] The pericardium was dissected free to allow free efflux of the perfusate and lungs were inflated manually with 1.5 mL air using a 10 mL syringe connected to the intratracheal cannula. As soon as the tissue blanched, the lungs were removed carefully from the chest cavity while maintaining the perfusion and a semi micro Rexaloy clamp (Fisher Scientific, Loughborough, UK) was used to suspend the lungs vertically above a funnel and beaker.
(§4) After isolation, the lungs were allowed to stabilize for 1–2 min. The syringe attached to the intratracheal cannula was then disconnected and 100 μL of the test solutions were instilled into the airways using a Hamilton microsyringe. Lungs were re-inflated with 1.5 mL of air and sampling was performed by collecting the effluent solution dripping from the left atrium at different time intervals for 90 min. Lung viability was assessed by visual inspection for any sign of oedema as well as by the profile of mannitol airway to perfusate transfer.
(§5) The cumulative percentage of drug transferred from the airways to the perfusate in 90 min was calculated as the fraction of the administered dose recovered in the perfusate. […] The apparent first-order absorption rate constant (KaIPL) was calculated as follows: KaIPL=ln2/t1/2abs
(§6) Absorption data were collected using 4 or 5 IPL preparations.

The subject of a further data set is NHBE cell layers. Nature of the data set: Absorptive (A to B) permeability in normal human bronchial epithelial (NHBE) cell layers. The data set is classed as in vitro ADME. The protocol: (§7) NHBE were cultured in a cell culture flask using the BEGM bullet kit provided by the supplier until reaching 70–80% confluence. […] After 24 h, cells were cultured at an air interface. Cell layers were used for transport studies after 14 d in culture.

A further data set relates to rat lungs. The conditions noted are these: apparent first-order pulmonary absorption rate constant in rats in vivo, cited from earlier work.
Another data set deals with 16HBE14o- cell layers. The conditions noted are these: pH 7.4.
The subject of another data set is Calu-3 cell layers. Nature of the data set: Absorptive (A to B) permeability in Calu-3 cell layers. The conditions noted are these: Calu-3, apical to basolateral, 10 μM, pH 7.4, 2 h; mean ± SEM (n = 6, n = 36 for mannitol).
Data set [2] is described as follows: in vitro. Conditions: male, Wistar, rat, pH 7.4. The method, then:
as §1, §2, §3, §4, §5, §6

A short description of data set [3]: Absorptive (A to B) permeability in normal human bronchial epithelial (NHBE) cell layers. The data set is classed as in vitro ADME. The conditions noted are these: human, apical to basolateral, 10 μM, pH 7.4, 2 h, mean ± SD (n = 3, n = 18 for mannitol). The protocol: as §7
Data set [4] in a line: Absorptive (A to B) permeability in 16HBE14o- cell layers. Conditions: human, pH 7.4.
The nature of data set [5]: Absorptive (A to B) permeability in Calu-3 cell layers. Conditions: human.
A short description of data set [6]: in vitro. Conditions: human, pH 7.4.
For data set [7] the following is noted: Table I panel of test compounds; source not stated; cited from earlier work.
[8] abbreviates: male, Wistar, rat, 90 min, pH 7.4.
The mark [9] stands for this setting: pH 7.4, Papp, Calu-3, apical to basolateral, 10 μM, pH 7.4, 2 h, mean ± SEM (n = 6, n = 36 for mannitol).
[10] abbreviates: apparent first-order absorption rate constant = ln2/t1/2 abs, intratracheal instillation 100 μL, mean ± SD.

Where two headings read alike, the source gives them in different places.

Dextran 10 K returned a KaIPL in data set [1] of 0.017 ± 0.002 min⁻¹. Also, the t1/2 abs in data set [1] (rat) came out at 41 ± 6 min. Besides, the Papp in the data set on NHBE cell layers (apical to basolateral, 10 μM, pH 7.4, 2 h, mean ± SD (n = 3, n = 18 for mannitol)) was 0.7 ± 0.1 10^−6 cm/s; in the data set on 16HBE14o- cell layers, 1 ± 0.1 ×10⁻⁶ cm/s; with Calu-3 cell layers, 0.2 ± 0.0 10^−6 cm/s. Moreover, in the data set with rat lungs (ref [23]), the Ka in vivo is given as 0.00007 ^(2) min^−1.
In the data set “in vitro [2]”, `OC[C@@H](O)[C@@H](O)[C@H](O)[C@H](O)CO` [Mannitol] displayed a half-life of 25 ± 5 min. In addition, the “% transferred to the perfusate in 90 min” value in data set [1] (setting [8]) came out at 51 ± 4%. For the same compound, the KaIPL in [1] (male, Wistar, rat, pH 7.4) stood at 0.029 ± 0.005 min⁻¹. In addition, the Papp at 2 h, 10 μM in data set [3] was 1.6 ± 0.5 ×10⁻⁶ cm/s; in data set [4] it was 3.7 ± 0.5 ×10⁻⁶ cm/s; in data set [5] (setting [9]), 0.5 ± 0.1 ×10⁻⁶ cm/s; in [5] (pH 7.4, Papp, Calu-3, as stated in text) it was 0.48 ± 0.06 ×10⁻⁶ cm/s. For the same compound, in the data set on NHBE cell layers, the apparent permeability (Papp) is recorded as 1.6 ± 0.5 x 10^−6, cm s^−1. Moreover, the Ka in vivo with rat lungs (ref [24]) was 0.011 ^(3) min^−1.
`CC(C)NCC(O)COc1cccc2ccccc12` (centres unmarked) [Propranolol] yielded a half-life in “in vitro [2]” (100 μL) of 7 ± 1 min. The “% transferred to the perfusate in 90 min” value in data set [1] (setting [8]) turned out to be 47 ± 9%. The compound further registered a KaIPL in [1] (male, Wistar, rat, pH 7.4) of 0.098 ± 0.016 min⁻¹. Also, the apparent permeability coefficient (Papp) at 2 h, 10 μM in [3] is 16.8 ± 3 ×10⁻⁶ cm/s; in “in vitro [6]” it was 17.3 ± 0.8 ×10⁻⁶ cm/s; in data set [5] (setting [9]), 7 ± 0.4 ×10⁻⁶ cm/s.
`COCCc1ccc(OCC(O)CNC(C)C)cc1` (centres unmarked) [Metoprolol] showed a half-life in the data set “in vitro [2]” of 3 ± 1 min. Moreover, in data set [1] (setting [8]), the “% transferred to the perfusate in 90 min” value is recorded as 65 ± 4%. Moreover, in [1] (male, Wistar, rat, pH 7.4), the KaIPL is 0.260 ± 0.050 min⁻¹. The Papp at 2 h, 10 μM was determined as 11.3 ± 0.7 ×10⁻⁶ cm/s in data set [3], 24.5 ± 2.5 ×10⁻⁶ cm/s in the data set “in vitro [6]” and 10.3 ×10⁻⁶ cm/s in [5] (setting [9]).
In “in vitro [2]”, `CC(C)(C)NCC(O)c1cc(O)cc(O)c1` (centres unmarked) [Terbutaline] returned a half-life of 19 ± 3 min. Moreover, the “% transferred to the perfusate in 90 min” value in data set [1] (setting [8]) is 52 ± 12%. In [1] (male, Wistar, rat, pH 7.4), this compound returned a KaIPL of 0.037 ± 0.006 min⁻¹. Besides, the values for the Papp at 2 h, 10 μM (in data set [3]; in “in vitro [6]”; in data set [5] (setting [9])) were 13.8 ± 0.8 ×10⁻⁶ cm/s, 19.3 ± 2 ×10⁻⁶ cm/s and 7.3 ± 0.4 ×10⁻⁶ cm/s, respectively. In data set [7], the log partition coefficient (Log P) is listed as 0.1. Besides, in the data set with rat lungs (ref [22]), the Ka in vivo was 0.06 ^(1) min^−1.
Take `COc1ccc(CC(C)NCC(O)c2ccc(O)c(NC=O)c2)cc1` (centres unmarked) [Formoterol]: the half-life in the data set “in vitro [2]” (100 μL) stood at 30 ± 2 min. Besides, the KaIPL in data set [1] (setting [10]) came out at 0.023 ± 0.002 min⁻¹. Further, the “% transferred to the perfusate in 90 min” value in [1] (cumulative fraction of administered dose recovered in perfusate at 90 min, mean ± SD) came out at 46 ± 7%. Also, the log partition coefficient (Log P) in data set [7] is recorded as 1.1. Further, the Ka in vivo in the data set on rat lungs (ref [22]) is on record as 0.19 ^(1) min^−1. Besides, the Papp at 2 h, 10 μM in data set [5] (pH 7.4) turned out to be 6.4 ± 0.3 ×10⁻⁶ cm/s.
For `CN(C)CCCN1c2ccccc2CCc2ccccc21` [Imipramine], the KaIPL in [1] (setting [10]) was 0.071 ± 0.021 min⁻¹. In data set [1] (setting [8]), the “% transferred to the perfusate in 90 min” value was 58 ± 9%. Further, the Ka in vivo in the data set with rat lungs (ref [22]) is recorded as 0.53 ^(1) min^−1.

Broadly, the Papp is the rate of passage across a membrane or cell layer, normalised by area and donor concentration. A high value points to ready permeation. By half-life is commonly meant the time needed for the level to fall by half in the phase considered. One may read the Log P as the decadic logarithm of the partition coefficient of the neutral form, usually between octanol and water.
